MFC data for one molecule are collected here from patent US20250026725A1, “HYDRATE CRYSTAL OF 5-CHLORO-4-(3-CHLORO-4- METHYLPHENYL)-1H-IMIDAZOLE-2-CARBONITRILE” (ISHIHARA SANGYO KAISHA, LTD., priority 2021, published 2025).

The test system of this assay is Trichophyton rubrum (ATCCMYA4607). Kind of assay: Antifungal activity test, minimum fungicidal concentration (MFC100) on spores by treatment time. The format is cell-based. The conditions noted are these: read-out: Minimal fungicidal concentration (MFC100). Here is the method: Trichophyton rubrum was cultured on a Sabouraud medium at 32° C. for 168 hours to form spores. Mycelia were peeled from a medium surface and collected into a tube, physiological saline solution (OTSUKA NORMAL SALINE; containing the equivalent of 9 g of sodium chloride in 1000 mL) was added thereto, and the entire mixture was mixed and dispersed with a disposable loop (Type 1 (1 μL)) to collect a spore suspension containing mycelia. The spore suspension containing mycelia was filtered through a cell strainer (+40 μm). Spores were collected from a filtrate by centrifugation (3500 rpm, 5 minutes), and washed twice with physiological saline to prepare a spore suspension (1×10^7 cells/mL). 10 μL of the spore suspension was inoculated into 90 μL of physiological saline solution to which the test compound dissolved in DMSO was added so as to have a predetermined concentration. Every time a predetermined time lapsed, 10 μL of a test solution containing spores was taken out. Spores were collected from the test solution thus taken out by centrifugation (3500 rpm, 5 minutes), and washed twice with physiological saline to prepare 10 μL of spore suspension. 10 μL of spore suspension was spotted on the Sabouraud medium and cultured at 32° C. for 72 hours, and then the presence or absence of the development of colonies was examined to determine a minimum fungicidal concentration (MFC100).
A minimum inhibitory concentration (MIC100) for Trichophyton rubrum (ATCCMYA4607) was determined in the same method as in Test Example 13 except that the hydrate crystal (Production Example 2) was used as the compound under test.

Values after ≈ are worked out from the molar mass of the structure shown. Like-named read-outs stand apart in the source and are kept apart here.

Regarding `Cc1ccc(-c2nc(C#N)[nH]c2Cl)cc1Cl` [Anhydrous crystal, 5-chloro-4-(3-chloro-4-methylphenyl)-1H-imidazole-2-carbonitrile], the MFC (treatment time 1 hour) stood at 50 µg/mL (≈ 198 µM), the MFC (treatment time 48 hours) came out at 10 µg/mL (≈ 39.7 µM) and the MFC (treatment time 72 hours) was found to be 5 µg/mL (≈ 19.8 µM).
